Source: ChEMBL document CHEMBL5375977, “Discovery of a First-in-Class GPR183 Antagonist for the Potential Treatment of Rheumatoid Arthritis” (J Med Chem, 2023)
Values after ≈ are worked out from the molar mass of the structure shown. Each block holds one compound with its values, some of them ahead of it.

Columns and labels:
[1] = Oral bioavailability in ICR mouse at 10 mg/kg measured upto 24 hrs; type: ADME, organism-based; details: in vivo
[2] = Clearance in ICR mouse at 1 mg/kg,iv measured upto 24 hrs; type: ADME, organism-based; details: in vivo
[3] = AUClast in ICR mouse at 1 mg/kg,iv measured upto 24 hrs; type: ADME, organism-based; set-up: dose 1 mg/kg, time < 24 hrs, route iv; details: in vivo
[4] = Cmax in ICR mouse at 10 mg/kg,po measured upto 24 hrs; type: ADME, organism-based; set-up: time < 24 hrs, dose 10 mg/kg, route po; details: in vivo
[5] = Half life in ICR mouse at 1 mg/kg,iv measured upto 24 hrs; type: ADME, organism-based; details: in vivo
[6] = Cmax in ICR mouse at 1 mg/kg,iv measured upto 24 hrs; type: ADME, organism-based; set-up: time < 24 hrs, dose 1 mg/kg, route iv; details: in vivo
[7] = Half life in ICR mouse at 10 mg/kg,po measured upto 24 hrs; type: ADME, organism-based; details: in vivo
[8] = AUClast in ICR mouse at 10 mg/kg,po measured upto 24 hrs; type: ADME, organism-based; set-up: time < 24 hrs, dose 10 mg/kg, route po; details: in vivo
[9] = Volume of distribution at steady state in ICR mouse at 1 mg/kg,iv measured upto 24 hrs; type: ADME, organism-based; details: in vivo, read-out: Vdss
[10] = Tmax in ICR mouse at 10 mg/kg,po measured upto 24 hrs; type: ADME, organism-based; details: in vivo
[11] = Aqueous solubility of compound in FaSSIF at pH 6.28; type: physicochemical
[12] = Half life in dog liver microsomes; type: ADME, Canis lupus familiaris, Microsome
[13] = Half life in mouse Hepatocyte; type: ADME, cell-based; details: hepatocytes
[14] = Drug distribution in C57BL/6 mouse plasma at po administration; type: ADME, organism-based; details: in vivo
[15] = Oral bioavailability in dog at 10 mg/kg measured upto 24 hrs; type: ADME, organism-based, Canis lupus familiaris; details: in vivo
[16] = Half life in rat liver microsomes; type: ADME, Microsome
[17] = Half life in human liver microsomes; type: ADME, Microsome
[18] = Half life in mouse liver microsomes; type: ADME, Microsome
[19] = Aqueous solubility of compound in FeSSIF at pH 4.83; type: physicochemical
[20] = Cmax in C57BL/6 mouse at 1 mg/kg,po measured upto 24 hrs; type: ADME, organism-based; set-up: dose 1 mg/kg, time < 24 hrs, route po; details: in vivo
[21] = Oral bioavailability in rat at 10 mg/kg measured upto 24 hrs; type: ADME, organism-based; details: in vivo
[22] = Apparent permeability across apical to basolateral side in human Caco-2 cells; type: ADME, cell-based
[23] = Half life in monkey liver microsomes; type: ADME, Macaca mulatta, Microsome; details: rhesus monkey
[24] = Apparent permeability across basolateral to apical side in human Caco-2 cells; type: ADME, cell-based
[25] = Aqueous solubility of compound in SGF at pH 2.26; type: physicochemical

bioavailability [1]: 116%
clearance [2]: 27.9 mL/min/kg
AUC(0-t) at 24 h [3]: 586 ng·h/mL
Cmax [4]: 4900 ng/mL
half-life [5]: 0.42 h
Cmax [6]: 1000 ng/mL
half-life [7]: 1.43 h
AUC(0-t) at 24 h [8]: 6840 ng·h/mL
Vd [9]: 0.94 L/kg
Tmax [10]: 0.25 h
SMILES: O=C(/C=C/c1ccc2c(c1)OC(F)(F)O2)N1CCN(C(=O)N2CCC2)CC1

SMILES: COc1ncc(C(=O)N2CCN(C(=O)/C=C/c3ccc4c(c3)OC(F)(F)O4)CC2)cn1
solubility [11]: 40 µM (≈ 17.3 µg/mL)
clearance [2]: 3.98 mL/min/kg
AUC(0-t) at 24 h [3]: 4190 ng·h/mL
Cmax [4]: 5900 ng/mL
half-life [12]: > 3.11 h
half-life [13]: 22.2 h
Drug uptake [14]: Dose-Dependent Effect
bioavailability [15]: > 100%
half-life [16]: > 3.11 h
half-life [17]: > 3.11 h
half-life [18]: > 3.11 h
solubility [19]: 134 µM (≈ 57.9 µg/mL)
Cmax [20]: 878 ng/mL
AUC(0-t) at 24 h [8]: 49700 ng·h/mL
bioavailability [21]: > 100%
Papp A→B [22]: 19.6 ×10⁻⁶ cm/s
half-life [23]: > 3.11 h
Papp B→A [24]: 16 ×10⁻⁶ cm/s
Tmax [10]: 1.33 h
solubility [25]: 63 µM (≈ 27.2 µg/mL)
